Measurements reported in patent publication US11332459B2 (TEIJIN PHARMA LIMITED, priority 2017, dated 2022).
Counter-ions that a name gives are not always drawn.

Target: T1, human TRPC6 (Homo sapiens, UniProt Q9Y210)
T1 construct: expressed in transfected cells
T1 sequence (Q9Y210 1-931): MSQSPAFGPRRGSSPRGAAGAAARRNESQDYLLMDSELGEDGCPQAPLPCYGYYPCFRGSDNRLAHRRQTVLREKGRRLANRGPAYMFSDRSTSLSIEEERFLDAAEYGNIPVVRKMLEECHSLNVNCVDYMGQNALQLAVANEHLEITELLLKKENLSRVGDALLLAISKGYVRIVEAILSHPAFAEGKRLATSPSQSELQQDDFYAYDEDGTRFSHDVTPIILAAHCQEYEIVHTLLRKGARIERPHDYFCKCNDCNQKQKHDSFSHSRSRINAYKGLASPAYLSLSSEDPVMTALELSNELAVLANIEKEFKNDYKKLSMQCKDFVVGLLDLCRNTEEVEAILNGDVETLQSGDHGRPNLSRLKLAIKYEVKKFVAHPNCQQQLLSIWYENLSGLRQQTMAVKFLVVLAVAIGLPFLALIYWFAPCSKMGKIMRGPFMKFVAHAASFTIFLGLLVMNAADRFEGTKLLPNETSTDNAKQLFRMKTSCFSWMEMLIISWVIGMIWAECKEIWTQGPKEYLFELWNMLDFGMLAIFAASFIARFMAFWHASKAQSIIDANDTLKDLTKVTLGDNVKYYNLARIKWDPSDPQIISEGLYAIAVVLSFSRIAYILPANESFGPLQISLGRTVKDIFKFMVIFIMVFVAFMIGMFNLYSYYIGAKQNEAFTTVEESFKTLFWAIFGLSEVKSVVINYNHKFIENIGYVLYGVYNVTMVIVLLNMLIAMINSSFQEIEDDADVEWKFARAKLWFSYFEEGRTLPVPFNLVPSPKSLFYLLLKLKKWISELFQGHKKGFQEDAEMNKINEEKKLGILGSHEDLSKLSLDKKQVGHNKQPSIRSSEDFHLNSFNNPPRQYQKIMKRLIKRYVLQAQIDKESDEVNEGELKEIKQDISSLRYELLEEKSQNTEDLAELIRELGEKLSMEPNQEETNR
Test: TRPC6 calcium flux assay (FLIPR, OAG-stimulated calcium influx)
Assay type: cell-based
Conditions: HEK293 cells stably transfected with human TRPC6, read-out: hTRPC6 Potency
In short: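 IC50 derived by plotting background-corrected peak fluorescence (180 s window, normalized to OAG-triggered signal vs buffer) against dose. Stable human TRPC6 HEK293 line was dye-loaded, exposed to compound 25 min, then challenged with 50 uM final OAG in 2 mM Ca2+ HEPES buffer pH 7.2, 0.5% DMSO.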

IC50 [nM]	Structure (SMILES)
> 3750	Cc1nnc(Cn2c(N3CC[C@@H](F)[C@H](N)C3)nc3cc(F)cc(F)c32)s1 [Example 599, (3R,4R)-1-(5,7-difluoro-1-((5-methyl-1,3,4-thiadiazol-2-yl)methyl)-1H-benzo[d]imidazal-2-yl)-4-fluoropiperidin-3-amine]
> 3750	Cc1nc(C)c(Cn2c(N3CC[C@@H](F)[C@H](N)C3)nc3cc(F)ccc32)s1 [Example 596, (3R,4R)-1-(1-((2,4-dimethylthiazol-5-yl)methyl)-5-fluoro-1H-benzo[d]imidazol-2-yl)-4-fluoropiperidin-3-amine]
230	N[C@@H]1CN(c2nc3cc(F)c(F)cc3n2CC(=O)N2Cc3cccnc3C2)CC[C@H]1F [Example 632, 2-(2-((3R,4R)-3-amino-4-fluoropiperidin-1-yl)-5,6-difluoro-1H-benzo[d]imidazol-1-yl)-1-(5H-pyrrolo[3,4-b]pyridin-6(7H)-yl)ethanone]
1010	Cc1nc(C)c(Cn2c(N3CC[C@@H](F)[C@H](N)C3)nc3ccc(F)cc32)s1 [Example 589, (3R,4R)-1-(1-((2,4-dimethylthiazol-5-yl)methyl)-6-fluoro-1H-benzo[d]imidazol-2-yl)-4-fluoropiperidin-3-amine]
24.2	CC(c1ccncc1)N(C)C(=O)Cn1c(N2CC[C@@H](F)[C@H](N)C2)nc2cc(F)c(F)cc21 (stereo partly drawn) [Example 613, 2-(2-((3R,4R)-3-amino-4-fluoropiperidin-1-yl)-5,6-difluoro-1H-benzo[d]imidazol-1-yl)-N-methyl-N-(1-(pyridin-4-yl)ethyl)acetamide]
28.9	CN(C)C(=O)Cn1c(N2CC[C@H](F)[C@H](N)C2)nc2ccc(Cl)cc21 [Example 461, 2-(2-((3R,4S)-3-amino-4-fluoropiperidin-1-yl)-6-chloro-1H-benzo[d]imidazol-1-yl)-N,N-dimethylacetamide]
10.9	CN(CC(F)(F)F)C(=O)Cn1c(N2CC[C@@H](F)[C@H](N)C2)nc2ccc(C(F)(F)F)cc21 [Example 554, 2-(2-((3R,4R)-3-amino-4-fluoropiperidin-1-yl)-6-(trifluoromethyl)-1H-benzo[d]imidazol-1-yl)-N-methyl-N-(2,2,2-trifluoroethyl)acetamide]
> 3750	COc1ccc2c(c1)nc(N1CC[C@@H](F)[C@H](N)C1)n2CC(=O)N(C)C [Example 450, 2-(2-((3R,4R)-3-amino-4-fluoropiperidin-1-yl)-5-methoxy-1H-benzo[d]imidazol-1-yl)-N,N-dimethylacetamide]
> 3750	CC(=O)N1CCN(C(=O)Cn2c(N3CC[C@@H](F)[C@H](N)C3)nc3cc(F)c(F)cc32)CC1 [Example 540, 1-(4-acetylpiperazin-1-yl)-2-(2-((3R,4R)-3-amino-4-fluoropiperidin-1-yl)-5,6-difluoro-1H-benzo[d]imidazol-1-yl)ethan-1-one]

The remaining lines, values behind:

Structure (SMILES)	IC50 [nM]
N#Cc1ccc(Cn2c(N3CC[C@@](O)(CN)C3)nc3ccccc32)cc1 [Example 176, (R)-4-((2-(3-(aminomethyl)-3-hydroxypyrrolidin-1-yl)-1H-benzo[d]imidazol-1-yl)methyl)benzonitrile 2,2,2-trifluoroacetate]	2330
N#Cc1ccc(Cn2c(N3C[C@@H]4CC[C@H](N)[C@@H]4C3)nc3ccccc32)nc1 [Example 77, 6-((2-((3aS,4S,6aR)-4-aminohexahydrocyclopenta[c]pyrrol-2(1H)-yl)-1H-benzo[d]imidazol-1-yl)methyl)nicotinonitrile hydrochloride]	10.9
N[C@@H]1CN(c2nc3cc(F)c(F)cc3n2Cc2ccc(F)cn2)CC[C@@H]1F [Example 304, (3R,4S)-1-(5,6-difluoro-1-((5-fluoropyridin-2-yl)methyl)-1H-benzo[d]imidazol-2-yl)-4-fluoropiperidin-3-amine]	52.4
COc1ccc2nc(N3CC[C@@H](F)[C@H](N)C3)n(Cc3ccc(C#N)cn3)c2c1 [Example 146, 6-((2-((3R,4R)-3-amino-4-fluoropiperidin-1-yl)-6-methoxy-1H-benzo[d]imidazol-1-yl)methyl)nicotinonitrile hydrochloride]	0.631
N[C@@H]1CN(c2nc3cc(F)cc(F)c3n2Cc2ccc(F)cn2)CC[C@H]1F [Example 32, (3R,4R)-1-(5,7-difluoro-1-((5-fluoropyridin-2-yl)methyl)-1H-benzo[d]imidazol-2-yl)-4-fluoropiperidin-3-amine]	47.2
N[C@@H]1CN(c2nc3cc(F)c(F)cc3n2CC(=O)N2CCOCC2)CC[C@H]1F [Example 276, 2-(2-((3R,4R)-3-amino-4-fluoro-1-piperidinyl)-5,6-difluoro-1H-benzimidazol-1-yl)-1-(4-morpholinyl)ethanone]	42.2
COc1cnc(Cn2c(N3CC[C@@H](F)[C@H](N)C3)nc3ccc(C#N)cc32)nc1 [Example 242, 2-((3R,4R)-3-amino-4-fluoropiperidin-1-yl)-1-((5-methoxypyrimidin-2-yl)methyl)-1H-benzo[d]imidazole-6-carbonitrile hydrochloride]	73.5
N[C@@H]1CN(c2nc3cc(F)ccc3n2Cc2ncc(Cl)cn2)CC[C@H]1O [Example 206, (3R,4R)-3-amino-1-(1-((5-chloropyrimidin-2-yl)methyl)-5-fluoro-1H-benzo[d]imidazol-2-yl)piperidin-4-ol]	12.3
CN(C)S(=O)(=O)c1ccc(Cn2c(N3CCC[C@@H](N)C3)nc3ccccc32)cc1 [Example 385, (R)-4-((2-(3-aminopiperidin-1-yl)-1H-benzo[d]imidazol-1-yl)methyl)-N,N-dimethylbenzenesulfon-amide]	> 50000
N#Cc1ccc(Cn2c(N3CCC(F)(F)[C@H](N)C3)nc3ccc(Cl)cc32)cc1 [Example 405]	0.708
N[C@@H]1CN(c2nc3cc(F)c(F)cc3n2Cc2ccc(-n3cncn3)cc2)CC[C@H]1F [Example 339, (3R,4R)-1-(5,6-difluoro-1-(4-(1H-1,2,4-triazol-1-yl)benzyl)-1H-benzimidazol-2-yl)-4-fluoro-3-piperidinamine]	3.23
N#Cc1ccc(Cn2c(N3CCC[C@H](N)C3)nc3c(Cl)cccc32)nc1 [Example 3, (S)-6-((2-(3-aminopiperidin-1-yl)-4-chloro-1H-benzo[d]imidazol-1-yl)methyl)nicotinonitrile]	1.99
N#Cc1ccc(Cn2c(N3CCC[C@@]4(CCN4)C3)nc3ccccc32)nc1 [Example 27, (R)-6-((2-(1,6-diazaspiro[3.5]nonan-6-yl)-1H-benzo[d]imidazol-1-yl)methyl)nicotinointrile]	73.5
C[C@@H](c1cccc2cccnc12)n1c(N2CC[C@@H](F)[C@H](N)C2)nc2cc(F)c(F)cc21 [Example 262, (3R,4R)-1-(5,6-difluoro-1-((1S)-1-(8-quinolinyl)ethyl)-1H-benzimidazol-2-yl)-4-fluoro-3-piperidinamine]	280
N#Cc1ccccc1Cn1c(N2CCC[C@@H](N)C2)nc2ccccc21 [Example 372, (R)-2-((2-(3-aminopiperidin-1-yl)-1H-benzo[d]imidazol-1-yl)methyl)benzonitrile]	14100
N#CCOc1ccc(Cn2c(N3CCC[C@@H](N)C3)nc3ccccc32)cc1 [Example 384, (R)-2-(4-((2-(3-aminopiperidin-1-yl)-1H-benzo[d]imidazol-1-yl)methyl)phenoxy) acetonitrile]	16000
